From US20230278972A1, “SUBSTITUTED HALOALKYL SULFONANILIDE HERBICIDES” (FMC Corporation, priority 2020, published 2023)

Experiments:
Type in all cases: in vivo
[1] = system: barnyardgrass (Echinochloa crus-galli); assay: Test B1 flooded paddy test, barnyardgrass; settings: 250 g ai/ha, Flood, applied to paddy water, 2-leaf stage, visually evaluated after 10 to 14 days
Source text: (§1) A dash (-) response means no test result.

[2] = system: ragweed (common ragweed, Ambrosia artemisiifolia); assay: Test A1 preemergence, ragweed
Outline: (§2)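 Pre: seeds in loam/sand blend, directed soil spray. Post: potted plants, same soil, 2–10 cm, 1–2 leaf stage. Chemicals in non-phytotoxic solvent + surfactant for both.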

[3] = system: goosegrass (Eleusine indica); assay: Test A1 preemergence, goosegrass
Outline: as §2

[4] = system: soybean (Glycine max); assay: Test A1 postemergence, soybean; settings: Postemergence
Outline: (§3)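 Test compounds were formulated in a non-phytotoxic solvent mixture containing a surfactant. For preemergence, seeds sown in a loam soil–sand blend received a directed soil spray. For postemergence, potted plants in the same soil, 2 to 10 cm tall at the one- to two-leaf stage, were sprayed.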

[5] = system: corn (Zea mays); assay: Test A1 postemergence, corn; settings: Postemergence
Outline: as §2

[6] = system: soybean (Glycine max); assay: Test A1 preemergence, soybean
Outline: as §2

[7] = system: galium (catchweed bedstraw, Galium aparine); assay: Test A1 postemergence, galium; settings: Postemergence
Outline: as §3

[8] = system: wheat (Triticum aestivum); assay: Test A1 preemergence, wheat
Outline: as §2

[9] = system: Foxtail, Giant (giant foxtail, Setaria faberi); assay: Test A1 postemergence, Foxtail, Giant; settings: Postemergence
Outline: as §3

[10] = system: Foxtail, Giant (giant foxtail, Setaria faberi); assay: Test A1 preemergence, Foxtail, Giant
Outline: as §2

[11] = system: Pigweed, Palmer (palmer amaranth, palmer pigweed, Amaranthus palmeri); assay: Test A1 postemergence, Pigweed, Palmer; settings: Postemergence
Outline: (§4)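 Herbicidal response was scored on plants treated either preemergence, by directed spray onto soil of a loam–sand blend after sowing, or postemergence on potted plants at the one- to two-leaf stage, 2–10 cm high. Test chemicals were carried in a non-phytotoxic solvent mix with surfactant.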

[12] = system: kochia (Bassia scoparia); assay: Test A1 preemergence, kochia
Outline: as §2

[13] = system: Ryegrass, Italian (Italian ryegrass, Lolium multiflorum); assay: Test A1 postemergence, Ryegrass, Italian; settings: Postemergence
Outline: as §3

[14] = system: goosegrass (Eleusine indica); assay: Test A1 postemergence, goosegrass; settings: Postemergence
Outline: as §3

[15] = system: ragweed (common ragweed, Ambrosia artemisiifolia); assay: Test A1 postemergence, ragweed; settings: Postemergence
Outline: as §4

[16] = system: rice (Oryza sativa); assay: Test B1 flooded paddy test, rice; settings: 250 g ai/ha, Flood, applied to paddy water, 2-leaf stage, visually evaluated after 10 to 14 days
Source text: as §1

[17] = system: kochia (Bassia scoparia); assay: Test A1 postemergence, kochia; settings: Postemergence
Outline: as §3

[18] = system: Ryegrass, Italian (Italian ryegrass, Lolium multiflorum); assay: Test A1 preemergence, Ryegrass, Italian
Outline: as §2

[19] = system: horseweed (Erigeron canadensis); assay: Test A1 postemergence, horseweed; settings: Postemergence
Outline: as §3

[20] = system: Oat, Wild (wild oat, Avena fatua); assay: Test A1 preemergence, Oat, Wild
Outline: as §2

[21] = system: blackgrass (Alopecurus myosuroides); assay: Test A1 postemergence, blackgrass; settings: Postemergence, 0 to 100 scale (0 no effect, 100 complete control)
Outline: as §3

[22] = system: ducksalad (Heteranthera limosa); assay: Test B1 flooded paddy test, ducksalad; settings: 250 g ai/ha, Flood, applied to paddy water, 2-leaf stage, visually evaluated after 10 to 14 days
Source text: as §1

[23] = system: blackgrass (Alopecurus myosuroides); assay: Test A1 preemergence, blackgrass
Outline: as §2

[24] = system: Oat, Wild (wild oat, Avena fatua); assay: Test A1 postemergence, Oat, Wild; settings: Postemergence
Outline: as §4

[25] = system: wheat (Triticum aestivum); assay: Test A1 postemergence, wheat; settings: Postemergence
Outline: as §3

[26] = system: Pigweed, Palmer (palmer amaranth, palmer pigweed, Amaranthus palmeri); assay: Test A1 preemergence, Pigweed, Palmer
Outline: as §2

[27] = system: corn (Zea mays); assay: Test A1 preemergence, corn
Outline: as §4

[28] = 31 g ai/ha, 0 to 100 scale (0 no effect, 100 complete control)
[29] = 125 g ai/ha, 0 to 100 scale, 0 no effect, 100 complete control
[30] = 31 g ai/ha, 0 to 100 scale (0 no effect, 100 complete control), 10 days

Cc1cc(C2CC2)c(C2=NOC3CCCC23)cc1N(COC(=O)C(C)(C)C)S(=O)(=O)C(F)(F)F (stereo not drawn) [Compound 355]
10: Plant response rating, Soybean [4, 30] | Plant response rating, Wheat [8, 28] | Plant response rating, Wheat [8, 29] | Plant response rating, Foxtail, Giant [9, 30] | Plant response rating, Rice (0 to 100 scale, 0 is no effect, 100 is complete control) [16] | Plant response rating, Oat, Wild ([24]; 125 g ai/ha, 0 to 100 scale)
45: Plant response rating, Ducksalad (0 to 100 scale, 0 is no effect, 100 is complete control) [22]
50: Plant response rating, Kochia ([17]; 125 g ai/ha, 0 to 100 scale) | Plant response rating, Wheat ([25]; 125 g ai/ha, 0 to 100 scale)
60: Plant response rating, Barnyardgrass (0 to 100 scale, 0 is no effect, 100 is complete control) [1] | Plant response rating, Galium ([7]; 125 g ai/ha, 0 to 100 scale) | Plant response rating, Foxtail, Giant ([9]; 125 g ai/ha, 0 to 100 scale) | Plant response rating, Foxtail, Giant [10, 29] | Plant response rating, Ragweed [15, 30] | Plant response rating, Ragweed ([15]; 125 g ai/ha, 0 to 100 scale)
40: Plant response rating, Ragweed [2, 29] | Plant response rating, Soybean ([4]; 125 g ai/ha, 0 to 100 scale) | Plant response rating, Galium [7, 30] | Plant response rating, Ryegrass, Italian ([13]; 125 g ai/ha, 0 to 100 scale)
0: Plant response rating, Ragweed [2, 28] | Plant response rating, Corn [5, 30] | Plant response rating, Foxtail, Giant [10, 28] | Plant response rating, Pigweed, Palmer [11, 30] | Plant response rating, Kochia [12, 28] | Plant response rating, Kochia [12, 29] | Plant response rating, Goosegrass [14, 30] | Plant response rating, Kochia [17, 30] | Plant response rating, Oat, Wild [20, 28] | Plant response rating, Oat, Wild [20, 29] | Plant response rating, Blackgrass ([21]; 31 g ai/ha, 10 days) | Plant response rating, Blackgrass ([21]; 125 g ai/ha) | Plant response rating, Blackgrass [23, 28] | Plant response rating, Blackgrass [23, 29] | Plant response rating, Oat, Wild [24, 30] | Plant response rating, Pigweed, Palmer [26, 28] | Plant response rating, Corn [27, 28] | Plant response rating, Corn [27, 29]
30: Plant response rating, Soybean [6, 29] | Plant response rating, Pigweed, Palmer ([11]; 125 g ai/ha, 0 to 100 scale) | Plant response rating, Ryegrass, Italian [13, 30] | Plant response rating, Ryegrass, Italian [18, 29]
70: Plant response rating, Goosegrass ([14]; 125 g ai/ha, 0 to 100 scale) | Plant response rating, Horseweed [19, 30] | Plant response rating, Horseweed ([19]; 125 g ai/ha, 0 to 100 scale) | Plant response rating, Pigweed, Palmer [26, 29]
20: Plant response rating, Goosegrass [3, 28] | Plant response rating, Corn ([5]; 125 g ai/ha, 0 to 100 scale) | Plant response rating, Soybean [6, 28] | Plant response rating, Ryegrass, Italian [18, 28] | Plant response rating, Wheat [25, 30]
90: Plant response rating, Goosegrass [3, 29]

Cc1c(C(=O)N2CCC(Cl)CC2)cc(N(COC(=O)C(C)(C)C)S(=O)(=O)C(F)(F)F)c(C)c1C [Compound 359]
0: Plant response rating, Ragweed [2, 28] | Plant response rating, Goosegrass [3, 28] | Plant response rating, Corn [5, 30] | Plant response rating, Corn ([5]; 125 g ai/ha, 0 to 100 scale) | Plant response rating, Soybean [6, 28] | Plant response rating, Wheat [8, 28] | Plant response rating, Wheat [8, 29] | Plant response rating, Foxtail, Giant [9, 30] | Plant response rating, Foxtail, Giant [10, 28] | Plant response rating, Pigweed, Palmer [11, 30] | Plant response rating, Kochia [12, 28] | Plant response rating, Kochia [12, 29] | Plant response rating, Ryegrass, Italian [13, 30] | Plant response rating, Ryegrass, Italian ([13]; 125 g ai/ha, 0 to 100 scale) | Plant response rating, Goosegrass [14, 30] | Plant response rating, Ryegrass, Italian [18, 28] | Plant response rating, Ryegrass, Italian [18, 29] | Plant response rating, Oat, Wild [20, 28] | Plant response rating, Oat, Wild [20, 29] | Plant response rating, Blackgrass ([21]; 31 g ai/ha, 10 days) | Plant response rating, Blackgrass ([21]; 125 g ai/ha) | Plant response rating, Blackgrass [23, 28] | Plant response rating, Blackgrass [23, 29] | Plant response rating, Oat, Wild [24, 30] | Plant response rating, Oat, Wild ([24]; 125 g ai/ha, 0 to 100 scale) | Plant response rating, Wheat [25, 30] | Plant response rating, Pigweed, Palmer [26, 28] | Plant response rating, Corn [27, 28] | Plant response rating, Corn [27, 29]
60: Plant response rating, Soybean ([4]; 125 g ai/ha, 0 to 100 scale) | Plant response rating, Foxtail, Giant ([9]; 125 g ai/ha, 0 to 100 scale)
80: Plant response rating, Ragweed [2, 29] | Plant response rating, Galium ([7]; 125 g ai/ha, 0 to 100 scale) | Plant response rating, Horseweed ([19]; 125 g ai/ha, 0 to 100 scale)
70: Plant response rating, Ragweed ([15]; 125 g ai/ha, 0 to 100 scale)
20: Plant response rating, Pigweed, Palmer ([11]; 125 g ai/ha, 0 to 100 scale) | Plant response rating, Goosegrass ([14]; 125 g ai/ha, 0 to 100 scale) | Plant response rating, Pigweed, Palmer [26, 29]
50: Plant response rating, Soybean [4, 30] | Plant response rating, Galium [7, 30] | Plant response rating, Horseweed [19, 30]
90: Plant response rating, Goosegrass [3, 29] | Plant response rating, Foxtail, Giant [10, 29]
30: Plant response rating, Soybean [6, 29] | Plant response rating, Ragweed [15, 30] | Plant response rating, Kochia [17, 30] | Plant response rating, Wheat ([25]; 125 g ai/ha, 0 to 100 scale)
25: Plant response rating, Ducksalad (0 to 100 scale, 0 is no effect, 100 is complete control) [22]
40: Plant response rating, Kochia ([17]; 125 g ai/ha, 0 to 100 scale)
15: Plant response rating, Rice (0 to 100 scale, 0 is no effect, 100 is complete control) [16]
95: Plant response rating, Barnyardgrass (0 to 100 scale, 0 is no effect, 100 is complete control) [1]
